Assays:
[1] = osmotic coefficient (dimensionless); mn = molality of the nth substance listed, in mol/kg; details: 323.15 K, Liquid, Knauer Osmometer
[2] = mn = molality of the nth substance listed, in mol/kg; details: 101 kPa, Liquid; for speed of sound: Sing-around technique in a fixed-path interferometer; for mass density: Vibrating tube method

CCCCn1cc[n+](C)c1.O=S(=O)([O-])C(F)(F)F [1-butyl-3-methylimidazolium trifluoromethanesulfonate] + CCC(C)O
[1]
Details | osmotic coefficient
m1 = 0.0481 | 0.914
m1 = 0.0784 | 0.806
m1 = 0.1008 | 0.771
m1 = 0.2021 | 0.657
m1 = 0.2917 | 0.568
m1 = 0.3846 | 0.507
m1 = 0.485 | 0.472
m1 = 0.7679 | 0.428
m1 = 1.126 | 0.379
m1 = 1.523 | 0.334
m1 = 1.909 | 0.318
m1 = 2.282 | 0.31
m1 = 2.574 | 0.296
m1 = 2.994 | 0.279
m1 = 3.448 | 0.275

[2]
Details | mass density, 293.15 K [kg/m3] | mass density, 308.15 K [kg/m3] | mass density, 323.15 K [kg/m3] | speed of sound, 293.15 K [m/s] | speed of sound, 308.15 K [m/s] | speed of sound, 323.15 K [m/s]
m1 = 0.098 | 815.49 | 802.94 | 789.53 | 1231 | 1177.6 | 1122.9
m1 = 0.149 | 819.88 | 807.37 | 794.01 | 1231.4 | 1178.3 | 1124.1
m1 = 0.201 | 824.3 | 811.78 | 798.46 | 1231.9 | 1179.2 | 1125.5
m1 = 0.249 | 828.21 | 815.73 | 802.45 | 1232 | 1179.6 | 1126.3
m1 = 0.498 | 847.84 | 835.4 | 822.26 | 1233.7 | 1182.7 | 1130.8
m1 = 1.002 | 882.87 | 870.47 | 857.52 | 1238.2 | 1189.5 | 1140.3
m1 = 1.239 | 897.53 | 885.16 | 872.26 | 1240.2 | 1192.4 | 1144
m1 = 1.522 | 913.81 | 901.44 | 888.61 | 1243.1 | 1196.2 | 1148.8
m1 = 1.763 | 926.62 | 914.26 | 901.49 | 1245.6 | 1199.4 | 1152.7
m1 = 2.497 | 961.11 | 948.77 | 936.11 | 1253.6 | 1209.2 | 1164.3
m1 = 2.935 | 978.86 | 966.54 | 953.94 | 1258.2 | 1214.5 | 1170.8

CCCCn1cc[n+](C)c1.O=S(=O)([O-])C(F)(F)F [1-butyl-3-methylimidazolium trifluoromethanesulfonate] + CCCCCO
[1]
Details | osmotic coefficient
m1 = 0.0505 | 0.619
m1 = 0.0795 | 0.565
m1 = 0.1004 | 0.529
m1 = 0.2014 | 0.436
m1 = 0.3014 | 0.402
m1 = 0.406 | 0.365
m1 = 0.5071 | 0.344
m1 = 0.8272 | 0.299
m1 = 1.233 | 0.242
m1 = 1.649 | 0.224
m1 = 2.044 | 0.202
m1 = 2.446 | 0.183
m1 = 2.837 | 0.184
m1 = 3.34 | 0.184

[2]
Details | mass density, 293.15 K [kg/m3] | mass density, 308.15 K [kg/m3] | mass density, 323.15 K [kg/m3] | speed of sound, 293.15 K [m/s] | speed of sound, 308.15 K [m/s] | speed of sound, 323.15 K [m/s]
m1 = 0.048 | 818.89 | 807.86 | 796.5 | 1292.6 | 1242.7 | 1193.2
m1 = 0.103 | 823.68 | 812.65 | 801.3 | 1292.3 | 1242.7 | 1193.6
m1 = 0.203 | 832.08 | 821.04 | 809.68 | 1291.9 | 1242.7 | 1194.1
m1 = 0.246 | 835.58 | 824.54 | 813.18 | 1291.4 | 1242.6 | 1194.1
m1 = 0.746 | 872.74 | 861.58 | 850.17 | 1289 | 1242 | 1195.6
m1 = 1.014 | 890.36 | 879.13 | 867.69 | 1288.5 | 1242.2 | 1196.7
m1 = 1.517 | 919.71 | 908.4 | 896.89 | 1288.2 | 1243.4 | 1199.3
m1 = 1.778 | 933.35 | 921.98 | 910.45 | 1288.6 | 1244.5 | 1201
m1 = 2.024 | 945.34 | 933.93 | 922.38 | 1289.4 | 1245.7 | 1202.7
m1 = 2.477 | 965.54 | 954.08 | 942.49 | 1290.7 | 1248.1 | 1205.9
m1 = 2.963 | 984.77 | 973.25 | 961.63 | 1292.8 | 1250.8 | 1209.4

CCCCn1cc[n+](C)c1.O=S(=O)([O-])C(F)(F)F [1-butyl-3-methylimidazolium trifluoromethanesulfonate] + CCCCO
[1]
Details | osmotic coefficient
m1 = 0.0481 | 0.84
m1 = 0.1053 | 0.618
m1 = 0.2108 | 0.512
m1 = 0.3131 | 0.457
m1 = 0.4049 | 0.425
m1 = 0.4947 | 0.403
m1 = 0.8149 | 0.36
m1 = 1.216 | 0.323
m1 = 1.613 | 0.301
m1 = 2.036 | 0.28
m1 = 2.425 | 0.268
m1 = 2.82 | 0.27
m1 = 3.311 | 0.259

[2]
Details | mass density, 293.15 K [kg/m3] | mass density, 308.15 K [kg/m3] | mass density, 323.15 K [kg/m3] | speed of sound, 293.15 K [m/s] | speed of sound, 308.15 K [m/s] | speed of sound, 323.15 K [m/s]
m1 = 0.052 | 814.31 | 802.84 | 790.99 | 1257.8 | 1207.6 | 1158.1
m1 = 0.101 | 818.63 | 807.15 | 795.31 | 1258 | 1208 | 1158.8
m1 = 0.153 | 823.08 | 811.61 | 799.78 | 1257.7 | 1208.3 | 1159.4
m1 = 0.206 | 827.53 | 816.05 | 804.22 | 1257.9 | 1208.8 | 1160.1
m1 = 0.25 | 831.16 | 819.67 | 807.85 | 1258 | 1209.1 | 1160.6
m1 = 0.504 | 851.11 | 839.58 | 827.75 | 1258 | 1210.5 | 1163.2
m1 = 0.756 | 869.28 | 857.7 | 845.85 | 1259.2 | 1212.1 | 1165.7
m1 = 1.009 | 886.03 | 874.41 | 862.55 | 1260.2 | 1213.9 | 1168.4
m1 = 1.262 | 901.54 | 889.89 | 878.01 | 1261 | 1215.8 | 1171
m1 = 1.508 | 915.57 | 903.89 | 892 | 1262.4 | 1217.9 | 1173.7
m1 = 1.758 | 928.83 | 917.11 | 905.21 | 1263.9 | 1219.9 | 1176.4
m1 = 1.989 | 940.32 | 928.56 | 916.64 | 1265.8 | 1222 | 1179
m1 = 2.486 | 962.85 | 951.04 | 939.1 | 1269.5 | 1226.6 | 1184.5
m1 = 2.979 | 982.55 | 970.73 | 958.77 | 1273.1 | 1231.2 | 1189.8

Reference: the NIST ThermoML archive (doi:10.1016/j.jct.2013.01.032)
